Results reported in patent US20260224563A1, “CRYSTALLINE FORMS OF 6-(3-((5-CHLORO-2-METHOXYPYRIDINE)-3-SULFONAMIDO)-2,6-DIFLUOROPHENYL)-N-METHYLIMIDAZO[1,5-A]PYRAZINE-1-CARBOXAMIDE AND METHODS FOR USING THE SAME” (HIBERCELL, INC., priority 2023, published 2026).
Where two headings read alike, the source gives them in different places.

Assay: Pharmacokinetics of HC-7366 in male and female beagle dogs following IV and oral administration of HC-7366-K (plasma and urine, LC-MS/MS)
Type: in vivo, Beagle Dog
Design: AUC(0-t)/D: unit not given here
Details: for AUC(0-inf) / AUC(0-t) / FPO / AUC(0-t)/D / t1/2: mean n = 3; for AUC(0-t): t = 48 h; for FPO: based on AUC(0-inf); for Cmax: suspension of Form III; for bioavailability: read-out: Mean oral bioavailability (FPO); for half-life: read-out: terminal half-life (t1/2) (converted); for Emesis: at 1 hour post dose
Method: The objective of this study was to characterize the pharmacokinetics of HC-7366 in male and female beagle dogs following intravenous (IV) and oral (PO) administration of the potassium salt of the compound of formula (I), which may be referred to in this Example as HC-7366-K.
The IV solution formulation of HC-7366-K contained “5% (v/v) DMSO and 95% (v/v) Captisol (20% w/v) in PBS (pH 7.4)”, and was administered […] dose at 0.5 mg free acid/kg.
The PO suspension formulation of HC-7366-K is a suspension of Form III of the potassium salt of the compound of formula (I) (see Example 6) and contained “0.5% (w/v) methylcellulose (400 cp) in water”, and was administered orally at 1 mg free acid/kg, 10 mg free acid/kg, 50 mg free acid/kg, 150 mg free acid/kg, respectively.
After dosing, blood samples were collected at various time points. Plasma and urine was harvested and analysed by LC-MS/MS to characterize the PK profiles of HC-7366.
HC-7366-K was stored at room temperature. The compound used in this study was HC-7366-K. All doses, concentrations and supporting data are expressed in terms of free acid. The molecular weight conversion factor from HC-7366-K to free acid was 1.11.
HC-7366-K was formulated as an IV solution at a target dose level of 0.5 mg/mL in “5% (v/v) DMSO and 95% (v/v) Captisol (20% w/v) in PBS (pH 7.4)”.
HC-7366-K was formulated as a PO suspension of Form III of the potassium salt of the compound of formula (I) (see Example 6) at a target dose concentration of 0.25 mg/mL, 2.5 mg/mL, 12.5 mg/mL and 37.5 mg/mL in “0.5% (w/v) methylcellulose (aq.) (400 cp) in water” respectively.
The dose was administered via intravenous and oral gavage at the target dose volume of 1, and 4 mL/kg, respectively. All animals had free access to water, were fasted overnight prior to dosing and fed approximately 2 hours after dosing. The IV dose and PO dose at 1 mg/kg were administered to the same dogs as a cross-over design. The PO dose was administered 10 days after the IV dose. The PO doses at 10, 50 and 150 mg/kg were administered to individual animals.
Following IV administration, blood samples (ca 0.3 mL) were collected from the venepuncture of peripheral veins except the dosing vein. Blood samples were collected pre dose and at 0.083 h, […], 0.5 h, 1 h, 2 h, 4 h, 8 h, […], 30 h, and 48 h post dose.
Following PO administration, blood samples (ca 0.3 mL) were collected from the venepuncture of peripheral veins. Blood samples were collected pre dose and at 0.25 h, 0.5 h, 1 h, 2 h, 4 h, 8 h, 24 h, 30 h, and 48 h post dose.
Blood samples were collected into tubes containing K2EDTA as anticoagulant. The acceptable time ranges for blood collection are shown below. […]. Samples were stored in a freezer set to maintain a temperature at or below −80° C. prior to analysis. The residual blood cells were discarded.
Urine samples were collected on cold packs into clean bottles and the cold packs were checked during the day and at each sampling interval. At the end of the collection interval, the volume of urine was recorded and then each sample was well mixed and maintained on wet ice throughout processing and then stored frozen at […]75±15° C. until analysis.
The plasma and urine concentration of HC-7366 was determined by protein precipitation with acetonitrile followed by liquid chromatography with mass spectrometric detection (LC MS/MS). Sample preparation was conducted by adding 50 uL plasma or 50 uL urine to 200 uL of acetonitrile containing dexamethasone as an analytical internal standard. There was no formal validation data to support the assay.
Calibration standards were prepared in male, female beagle dog plasma or urine using HC-7366 Free acid. Calibration standards were freshly prepared on the day of analysis.
Parameters were estimated using Phoenix (WinNonlin) pharmacokinetic software version 6.1.0 using a non-compartmental approach consistent with IV and PO routes of administration. […]

[1] = Female Beagle dog, IV 0.5 mg/kg, plasma
[2] = Female Beagle dog, PO 1 mg/kg, plasma
[3] = Female Beagle dog, PO 10 mg/kg, plasma
[4] = Female Beagle dog, PO 50 mg/kg, plasma
[5] = Female Beagle dog, PO 150 mg/kg
[6] = Female Beagle dog, PO 150 mg/kg, plasma
[7] = dog, plasma, female beagle dogs, oral 1 mg/kg
[8] = dog, Male Beagle dogs, IV 0.5 mg/kg, HC-7366 in plasma
[9] = dog, Male Beagle dogs, PO 1 mg/kg, HC-7366 in plasma
[10] = dog, Male Beagle dogs, PO 10 mg/kg, HC-7366 in plasma
[11] = dog, Male Beagle dogs, PO 50 mg/kg, HC-7366 in plasma
[12] = dog, Male Beagle dogs, PO 150 mg/kg, HC-7366 in plasma
[13] = plasma, female beagle dog, oral 10 mg/kg
[14] = plasma, female beagle dog, oral 50 mg/kg
[15] = plasma, female beagle dog, oral 150 mg/kg
[16] = plasma, male beagle dog, oral 1 mg/kg
[17] = plasma, male beagle dog, oral 10 mg/kg
[18] = plasma, male beagle dog, oral 50 mg/kg
[19] = plasma, male beagle dog, oral 150 mg/kg

Q: Which AUC(0-inf) [1] does the source give for `CNC(=O)c1ncn2cc(-c3c(F)ccc(NS(=O)(=O)c4cc(Cl)cnc4OC)c3F)ncc12` [HC-7366-K, 6-(3-((5-chloro-2-methoxypyridine)-3-sulfonamido)-2,6-difluorophenyl)-N-methylimidazo[1,5-a]pyrazine-1-carboxamide] here?
A: 85.7 µg·h/mL

Q: What about the AUC(0-t) [1] of the same compound?
A: 81.1 µg·h/mL

Q: What about the FPO (Female Beagle dog, PO 1 mg/kg) of the same compound?
A: 99%

Q: What about the “AUC(0-t)/D” value (Female Beagle dog, PO 1 mg/kg) of the same compound?
A: 156383

Q: And the AUC(0-inf) [2]?
A: 170 µg·h/mL

Q: And the t1/2 [2]?
A: 13 h

Q: And the AUC(0-t) [2]?
A: 156 µg·h/mL

Q: And the FPO (Female Beagle dog, PO 10 mg/kg)?
A: 84%

Q: What about the “AUC(0-t)/D” value (Female Beagle dog, PO 10 mg/kg) of the same compound?
A: 126414

Q: And the AUC(0-inf) [3]?
A: 1440 µg·h/mL

Q: What about the t1/2 [3] of the same compound?
A: 14 h

Q: What about the Tmax (Female Beagle dog, PO 10 mg/kg, range n = 3) of the same compound?
A: 0.50 to 1.0 h

Q: And the AUC(0-t) [3]?
A: 1260 µg·h/mL

Q: And the FPO (Female Beagle dog, PO 50 mg/kg)?
A: 63%

Q: What about the “AUC(0-t)/D” value (Female Beagle dog, PO 50 mg/kg) of the same compound?
A: 97510

Q: What about the AUC(0-inf) [4] of the same compound?
A: 5370 µg·h/mL

Q: And the t1/2 [4]?
A: 14 h

Q: And the AUC(0-t) [4]?
A: 4880 µg·h/mL

Q: What about the FPO [5] of the same compound?
A: 32%

Q: And the “AUC(0-t)/D” value [5]?
A: 49629

Q: What about the AUC(0-inf) [6] of the same compound?
A: 8260 µg·h/mL

Q: What about the t1/2 [6] of the same compound?
A: 14 h

Q: And the AUC(0-t) [6]?
A: 7440 µg·h/mL

Q: What about the “AUC(0-t)/D” value (Male Beagle dogs, IV 0.5 mg/kg) of the same compound?
A: 155094

Q: What about the FPO (Male Beagle dogs, PO 1 mg/kg) of the same compound?
A: 73%

Q: What about the “AUC(0-t)/D” value (Male Beagle dogs, PO 1 mg/kg) of the same compound?
A: 116097

Q: What about the t1/2 (Male Beagle dogs, PO 10 mg/kg, HC-7366 in plasma) of the same compound?
A: 15 h

Q: What about the FPO (Male Beagle dogs, PO 10 mg/kg) of the same compound?
A: 83%

Q: What about the “AUC(0-t)/D” value (Male Beagle dogs, PO 10 mg/kg) of the same compound?
A: 126074

Q: And the t1/2 (Male Beagle dogs, PO 50 mg/kg, HC-7366 in plasma)?
A: 17 h

Q: And the FPO (Male Beagle dogs, PO 50 mg/kg)?
A: 58%

Q: And the “AUC(0-t)/D” value (Male Beagle dogs, PO 50 mg/kg)?
A: 85797

Q: What about the t1/2 (Male Beagle dogs, PO 150 mg/kg, HC-7366 in plasma) of the same compound?
A: 11 h

Q: And the FPO (Male Beagle dogs, PO 150 mg/kg)?
A: 21%

Q: And the “AUC(0-t)/D” value (Male Beagle dogs, PO 150 mg/kg)?
A: 34480

Q: And the Tmax (Male Beagle dogs, PO 150 mg/kg, range n = 3)?
A: 1.0 to 4.0 h

Q: What about the Tmax (dog, plasma, Male Beagle dogs, PO 1 mg/kg, range n = 3, read-out: tmax) of the same compound?
A: 0.25 to 0.5 h

Q: What about the Tmax (dog, plasma, Male Beagle dogs, PO 10 mg/kg, range n = 3, read-out: tmax) of the same compound?
A: 0.5 h

Q: And the Tmax (dog, plasma, Male Beagle dogs, PO 50 mg/kg, range n = 3, read-out: tmax)?
A: 0.5 to 1 h

Q: And the clearance (dog, plasma, female Beagle dogs, intravenous 0.5 mg/kg, read-out: Clearance (CL))?
A: 5.84 mL/h/kg

Q: And the Vd (dog, plasma, female Beagle dogs, intravenous 0.5 mg/kg, read-out: volume of distribution at steady state (Vss))?
A: 0.084 L/kg

Q: What about the Cmax [7] of the same compound?
A: 10.7 µg/mL

Q: What about the bioavailability [7] of the same compound?
A: 99%

Q: And the half-life [7]?
A: 13 h

Q: What about the AUC(0-inf) [8] of the same compound?
A: 85.6 µg·h/mL

Q: And the AUC(0-t) [8]?
A: 77.5 µg·h/mL

Q: What about the AUC(0-inf) [9] of the same compound?
A: 123 µg·h/mL

Q: What about the AUC(0-t) [9] of the same compound?
A: 116 µg·h/mL

Q: And the AUC(0-inf) [10]?
A: 1420 µg·h/mL

Q: What about the AUC(0-t) [10] of the same compound?
A: 1260 µg·h/mL

Q: What about the AUC(0-inf) [11] of the same compound?
A: 4930 µg·h/mL

Q: And the AUC(0-t) [11]?
A: 4290 µg·h/mL

Q: What about the AUC(0-inf) [12] of the same compound?
A: 5470 µg·h/mL

Q: What about the AUC(0-t) [12] of the same compound?
A: 5170 µg·h/mL

Q: What about the half-life (dog, female Beagle dogs, intravenous 0.5 mg/kg, plasma HC-7366, mean n=3) of the same compound?
A: 12 h

Q: What about the half-life (dog, male beagle dogs, intravenous 0.5 mg/kg, plasma HC-7366, mean n=3) of the same compound?
A: 14 h

Q: What about the Emesis (female beagle dog, oral 150 mg/kg) of the same compound?
A: Emesis was observed

Q: What about the Emesis (male beagle dog, oral 150 mg/kg) of the same compound?
A: Emesis was observed

Q: What about the “gender differences in the PK parameters” value (male versus female beagle dogs) of the same compound?
A: no notable gender differences

Q: What about the “dose proportionality of AUC (AUC/D values)” value (oral, between 1 and 50 mg/kg, beagle dogs) of the same compound?
A: generally increased in proportional to dose level

Q: What about the Tmax (plasma, Female Beagle dog, PO 1 mg/kg, range n = 3, read-out: tmax) of the same compound?
A: 1 to 2 h

Q: And the Tmax (plasma, Female Beagle dog, PO 50 mg/kg, range n = 3, read-out: tmax)?
A: 2 to 4 h

Q: What about the Tmax (plasma, Female Beagle dog, PO 150 mg/kg, range n = 3, read-out: tmax) of the same compound?
A: 0.5 to 1 h

Q: And the Cmax [13]?
A: 87 µg/mL

Q: What about the Tmax (plasma, female beagle dog, oral 10 mg/kg, three animals, read-out: time post dose at which Cmax was observed (Tmax)) of the same compound?
A: 0.5 to 1 h

Q: What about the bioavailability [13] of the same compound?
A: 84%

Q: What about the half-life [13] of the same compound?
A: 14 h

Q: What about the Cmax [14] of the same compound?
A: 246 µg/mL

Q: And the bioavailability [14]?
A: 63%

Q: And the half-life [14]?
A: 14 h

Q: And the Cmax [15]?
A: 350 µg/mL

Q: And the bioavailability [15]?
A: 32%

Q: What about the half-life [15] of the same compound?
A: 14 h

Q: What about the Cmax [16] of the same compound?
A: 10.2 µg/mL

Q: What about the bioavailability [16] of the same compound?
A: 73%

Q: What about the half-life [16] of the same compound?
A: 12 h

Q: What about the Cmax [17] of the same compound?
A: 94.3 µg/mL

Q: And the bioavailability [17]?
A: 83%

Q: What about the half-life [17] of the same compound?
A: 15 h

Q: And the Cmax [18]?
A: 227 µg/mL

Q: What about the bioavailability [18] of the same compound?
A: 58%

Q: What about the half-life [18] of the same compound?
A: 17 h

Q: What about the Cmax [19] of the same compound?
A: 280 µg/mL

Q: What about the Tmax (plasma, male beagle dog, oral 150 mg/kg, three animals, read-out: time post dose at which Cmax was observed (Tmax)) of the same compound?
A: 1 to 4 h

Q: What about the bioavailability [19] of the same compound?
A: 21%

Q: What about the half-life [19] of the same compound?
A: 11 h
